Assay results published in US5817640A (Gensia Pharmaceuticals, priority 1995, dated 1998).
Values joined by “and” are separate entries in the source; they are usually repeats but may differ in a detail not shown here. Identical values can stand only once.

System: patients undergoing coronary artery bypass graft (CABG) surgery
Experiment: Myocardial ischemia by continuous Holter ECG and TEE (Phase 2)
Type: in vivo, human
Details: for Mean duration of postbypass ECG ischemic episodes: patients with events, placebo 175 ± 156, p=0.04; for Incidence of prebypass ECG ischemia: placebo 0%; for Incidence of ECG ischemia (postbypass) / Incidence of preoperative (baseline) ECG ischemia: placebo 18%; for Incidence of ECG ischemia (postbypass): p=0.42; for Incidence of prebypass TEE ischemia: placebo 19%; for Incidence of prebypass TEE ischemia / Ischemic minutes per hour monitored, postbypass: p=0.22; for Incidence of postbypass TEE ischemia: placebo 29%, p=0.86; for Ischemic minutes per hour monitored, postbypass: placebo 35 ± 14; for Mean area under the S-T curve (AUC), postbypass ECG ischemia: placebo -258 ± 317, p=0.24; for Incidence of preoperative (baseline) ECG ischemia: before drug; for Mean area under the S-T segment: post-bypass, placebo 35±14
Description: During surgery, anesthesia was maintained by continuous infusion of fentanyl and midazolam. Routine clinical parameters were recorded using standard operating room monitoring equipment. Continuous 2-lead Holter ECG and TEE data were recorded. Standard surgical procedures (e.g., aorta cross-clamping, crystalloid cardioplegia, cardio-pulmonary bypass, hypothermia) were used. Anastomoses were constructed, aorta cross-clamp removed and patients were discontinued from bypass when body temperature was 37° C. The quality of anastomosis was judged by the surgeon. Difficulty in weaning from bypass was judged by need for one or more of the following: pacemaker, return to bypass, balloon pump or vasopressor administration. Hemodynamic measurements, including heart rate, arterial blood pressure, pulmonary capillary wedge pressure and cardiac output, were recorded before sternotomy, 15 and 30 min after bypass and upon chest closure. Radial artery and pulmonary artery pressures, myocardial and whole body temperature, O2 saturation, end-tidal CO2 and arterial blood gases were measured, and ECG recordings were obtained as clinically indicated. Hemodynamic variables (blood pressure, heart rate, pulmonary capillary wedge pressure) were controlled within 20% of baseline using prescribed regimens.
A twelve-lead ECG was obtained on arrival in the intensive care unit and during post-operative days 1, 2, 3 and at hospital discharge. Creatinine phosphokinase MB band (CK-MB) was obtained every 8 hours for 48 hours and when indicated. Radio-nuclide ventriculography for ejection fraction and wall motion score was done about 14 days post-operation and as close to hospital discharge as possible. Other tests and measurements (e.g., chest x-ray, pulmonary artery wedge pressure (PCWP) were performed when clinically indicated for diagnosis or evaluation of myocardial infarction, or congestive heart failure. Timing and dose of all cardiovascular medications within 48 hours after surgery were recorded. The total dose of all analgesics during the 24-hour post-operative period was recorded. Fluid intake and output (e.g., blood replacement and urine output) were recorded for 48 hours. The type and duration of inotropic support and antiarrhythmic intervention required were recorded through 24 hours after surgery. Two-channel Holter recordings were obtained during 3 periods, the eight hours prior to intubation, from intubation through the end of surgery, and for an additional 24-48 hours after surgery.
The evaluation of Holter tapes and echo videotapes was performed centrally by two independent blinded observers; if there was disagreement between the two, a third observer was used to "break the tie." The same observers were used throughout the study.
5. Ischemic Events--TEE. Ischemic event data were evaluated during two time periods--pre-bypass and post-bypass, using the following analysis:
a) The number of patients with ischemic events was compared across the groups using Fisher's exact test. This analysis also included pre-post changes and pre- and post-combined.
b) For patients with events, analysis of the mean duration and severity of ischemia was done. Using only the patients with ischemic events reduced the number included in the analysis, but allowed determination of whether the drug is effective in reducing the magnitude of the events, should they occur. […] For severity (an […] variable, 0-4 scale) and number of events, the Kruskal-Wallis nonparametric test was used. The same comparisons were done with the active treatment groups combined.
6. Ischemic Events--ECG. The analysis of ischemic events indicated by ECG was done using the same methods as the echo events. The time periods analyzed were: (a) baseline (Holter start to infusion start), (b) pre-bypass (infusion start to bypass start), (c) post-bypass (sideclamp off to infusion end), and (d) post-treatment (infusion end to Holter end). […]

[1] = high dose (0.1 mg/kg/min), 0.1 mg/kg
[2] = low dose (0.05 mg/kg/min), 0.05 mg/kg

## NC(=O)c1ncn([C@@H]2O[C@H](CO)[C@@H](O)[C@H]2O)c1N [AICA riboside, 5-amino-1-β-D-ribofuranosyl-imidazole-4-carboxamide]
[1]
  Mean duration of postbypass ECG ischemic episodes: 36 ± 20 min and 36 min
  Ischemic minutes per hour monitored, postbypass: 27 ± 20 min/h
High dose (0.1 mg/kg/min)
  Incidence of prebypass ECG ischemia: 3%
  Incidence of ECG ischemia (postbypass): 11%
  Incidence of prebypass TEE ischemia: 6%
  Incidence of postbypass TEE ischemia: 24%
  Mean area under the S-T curve (AUC), postbypass ECG ischemia: -52 ± 28 mm-min
High dose group (0.1 mg/kg/min)
  Incidence of preoperative (baseline) ECG ischemia: 14%
High dose
  Mean area under the S-T segment: 27±20
[2]
  Mean duration of postbypass ECG ischemic episodes: 125 ± 80 min and 125 min
  Ischemic minutes per hour monitored, postbypass: 40 ± 15 min/h
Low dose (0.05 mg/kg/min)
  Incidence of prebypass ECG ischemia: 3%
  Incidence of ECG ischemia (postbypass): 22%
  Incidence of prebypass TEE ischemia: 15%
  Incidence of postbypass TEE ischemia: 27%
  Mean area under the S-T curve (AUC), postbypass ECG ischemia: -172 ± 144 mm-min
Low dose group (0.05 mg/kg/min)
  Incidence of preoperative (baseline) ECG ischemia: 14%
Low dose
  Mean area under the S-T segment: 40±15
Patients undergoing CABG surgery
  Effect on postsurgical myocardial ischemia: limits the extent of postsurgical myocardial ischemia
